# Structures can show the parent of a compound that is named as a salt.
# Columns and labels:
# Sprague-Dawley rats = assay: In Vivo Test for the Prevention of Death Due to Infarction; conditions: 3 rats infarcted, 10 mg/kg intraperitoneal 1 h before 10 mg/kg s.c. (-)isoproternol hydrochloride, observed 2.5 hours; for responders at 10 mg/kg: Rattus norvegicus, ip, read-out: % Survival
# Method: Beitz, Toxicology and Applied Pharmacology 62, 152-157 (1982) was performed as follows:
# In Vivo Test for the Prevention of Death Due to Infarction
# Sprague-Dawley rats were pretreated with an intraperitoneal injection of the test compound at 10 mg/kg of body weight. One hour later, a myocardial infarction was induced by injection 10 mg/kg of (-)isoproternol hydrochloride subcutaneously. Each compound was tested in at least three rats. […] The compound is considered "in vivo active" in those groups in which all animals survive the myocardial infarction.
# [1] = target: T1, thromboxane synthetase enzyme (Rattus norvegicus, UniProt P49430); assay: Inhibition of thromboxane formation (TXB2 RIA) in washed platelets of spontaneously hypertensive rats; type: cell-based, Okamoto-Aoki spontaneously hypertensive rats (SHR); conditions: SHR platelets, 10 minutes at 37° C.; drug concentration not given
# T1 construct: The platelets were isolated by centrifuging the PRP for 10 minutes; endogenous in cells; host or cells: washed platelets from arterial blood of Okamoto-Aoki spontaneously hypertensive rats (SHR; animals from Taconic Farms, Germantown, N.Y.)
# T1 sequence (P49430 1-533): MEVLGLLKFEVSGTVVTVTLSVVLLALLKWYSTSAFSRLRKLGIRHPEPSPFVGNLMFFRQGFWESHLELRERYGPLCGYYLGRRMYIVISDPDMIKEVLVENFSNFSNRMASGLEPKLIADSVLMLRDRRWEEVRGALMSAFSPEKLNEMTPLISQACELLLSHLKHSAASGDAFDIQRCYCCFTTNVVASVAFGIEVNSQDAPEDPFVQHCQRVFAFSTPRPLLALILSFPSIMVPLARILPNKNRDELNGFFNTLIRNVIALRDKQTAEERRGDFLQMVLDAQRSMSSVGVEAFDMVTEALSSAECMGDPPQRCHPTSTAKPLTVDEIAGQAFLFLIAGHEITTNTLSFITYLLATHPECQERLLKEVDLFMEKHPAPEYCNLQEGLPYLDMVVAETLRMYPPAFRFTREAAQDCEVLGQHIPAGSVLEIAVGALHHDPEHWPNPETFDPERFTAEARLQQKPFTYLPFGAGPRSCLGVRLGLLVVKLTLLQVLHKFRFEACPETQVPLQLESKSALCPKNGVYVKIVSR
# Method: Under urethan anesthesia, […] of arterial blood was collected in one ml. of 3.2% sodium citrate in a polystyrene tube from Okamoto-Aoki spontaneously hypertensive rats (SHR) (Taconic Farms, Germantown, N.Y.) between 19 and 24 weeks in age. The blood was diluted with 3 ml. of cold saline and centrifuged at room temperature for 15 minutes at 460×g. The platelet rich plasma (PRP) was separated. The platelets were isolated by centrifuging the PRP for 10 minutes at 1060 xg and were washed in 4 ml. of cold oxygenated Krebs phosphate buffer, pH 7.4. The chilled platelets recovered from centrifuging at 800×g for 10 minutes were resuspended in oxygenated Krebs phosphate buffer and diluted to contain 4.5-6.0×10^4 platelets/μl. The inhibition of thromboxane (TX) formation was studied by determining the concentration of thromboxane B2 (TXB2), the stable hydrolysis product of TXA2. Assay samples, prepared on ice, contained 200 μl platelet suspension, 50 μl saline, and 50 μl vehicle or drug under study (OKY1581, UK-37248-01, 1-benzylimidazole, or indomethacin). The samples were incubated for 10 minutes at 37° C. in a metabolic shaker. The reaction was terminated by immersing the tubes in an ice bath and adding 50 μl of 0.5M citric acid. The samples were centrifuged for 10 minutes in a refrigerated centrifuge and the supernatants thus obtained were decanted and stored at -20° C. The TXB2 content for each sample was determined by a direct radioimmunoassay (RIA) utilizing a TXB2 specific RIA kit purchased from New England Nuclear, Boston, MA. and expressed as pg TXB2 formed minute^-1 sample^-1, from which the percent inhibition of TXB2 formation was calculated.
SMILES,No. of Rats Surviving (Sprague-Dawley rats),responders at 10 mg/kg (Sprague-Dawley rats),% Inhibition (of TXB2 formation) [1]
"Nc1cc(Cl)ccc1C(=O)NCCCc1cccnc1 [2-Amino-4-chloro-N--[3-(3-pyridinyl)propyl]benzamide, dihydrochloride]",3,100%,–
Nc1ccc(Cl)cc1C(=O)NCCCc1cccnc1 [2-Amino-5-chloro-N--[3-(3-pyridinyl)propyl]benzamide dihydrochloride],–,–,98%
"Nc1ccccc1C(=O)NCCc1cccnc1 [Example 1, 2-Amino-N-[2-(3-pyridinyl)ethyl]benzamide]",3,100%,–
"Cl.Cl.Nc1ccccc1C(=O)NCCCCc1cccnc1 [Example 2, 2-Amino-N-[4-(3-pyridinyl)butyl]benzamide dihydrochloride]",3,100%,97%
"Cl.Cl.Nc1ccc(Cl)cc1C(=O)NCCCCc1cccnc1 [Example 3, 2-Amino-5-chloro-N-[4-(3-pyridinyl)butyl]benzamide dihydrochloride]",3,100%,–
"CNc1ccc(Cl)cc1C(=O)NCCCCc1cccnc1.Cl.Cl [Example 4, 5-Chloro-2-(methylamino)-N-[4-(3-pyridinyl)butyl]benzamide dihydrochloride]",–,–,99%
"Cl.Cl.Nc1cc(Cl)ccc1C(=O)NCCCCc1cccnc1 [Example 6, 2-Amino-4-Chloro-N-[4-(3-pyridinyl)butyl]benzamide dihydrochloride]",3,100%,–
"Cc1ccc(N)c(C(=O)NCCCCc2cccnc2)c1.Cl.Cl [Example 7, 2-Amino-5-methyl-N-[4-(3-pyridinyl)butyl]benzamide dihydrochloride]",3,100%,100%
"Nc1cc(Cl)ccc1C(=O)NCCCc1cccnc1 [Example 9, 2-Amino-4-chloro-N-[3-(3-pyridinyl)propyl]benzamide]",–,–,95%
"Cl.Cl.Nc1c(C(=O)NCCCc2cccnc2)cccc1C(F)(F)F [Example 11, 2-Amino-N-[3-(3-pyridinyl)propyl]-3-(trifluoromethyl)benzamide dihydrochloride]",–,–,98%
"O=C(O)c1ccccc1C(=O)NCCc1cccnc1 [Example 12, 2-[[[2-(3-Pyridinyl)ethyl]amino]carbonyl]benzoic acid]",3,100%,–
"O=C(O)c1ccccc1C(=O)NCCCCc1cccnc1 [Example 13, 2-[[[4-(3-Pyridinyl]butyl]amino]carbonyl]benzoic acid]",–,–,92%
"O=C(O)c1ccc(Cl)cc1C(=O)NCCCCc1cccnc1 [Example 14, 4-Chloro-2-[[[4-(3-pyridinyl)butyl]amino]carbonyl]benzoic acid]",3,100%,100%
